# Patent publication US9221809B2 (MERCK SHARP & DOHME CORP., priority 2011, dated 2015)
# Structures can show the parent of a compound that is named as a salt.
# Target: IRAK4 (Homo sapiens (Human), UniProt Q9NWZ3)
# Assay: IRAK4 kinase activity, IMAP fluorescence polarization assay
# Assay type: biochemical
# Conditions: 100 μM ATP, 0.5 nM GST tagged IRAK4; read-out: IRAK4 IC50
# How it was run: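 Fluorescence polarization (IMAP nanoparticle binding of phosphopeptide) reports activity after a 30 min, 25 °C reaction. Conditions: 100 μM ATP, 0.5 nM GST-IRAK4, 100 nM fluorescent peptide, 10 mM Tris pH 7.2, 1 mM MgCl2, 1 mM DTT, 0.01% Tween 20.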
# Chain of IRAK4 (Q9NWZ3 whole entry): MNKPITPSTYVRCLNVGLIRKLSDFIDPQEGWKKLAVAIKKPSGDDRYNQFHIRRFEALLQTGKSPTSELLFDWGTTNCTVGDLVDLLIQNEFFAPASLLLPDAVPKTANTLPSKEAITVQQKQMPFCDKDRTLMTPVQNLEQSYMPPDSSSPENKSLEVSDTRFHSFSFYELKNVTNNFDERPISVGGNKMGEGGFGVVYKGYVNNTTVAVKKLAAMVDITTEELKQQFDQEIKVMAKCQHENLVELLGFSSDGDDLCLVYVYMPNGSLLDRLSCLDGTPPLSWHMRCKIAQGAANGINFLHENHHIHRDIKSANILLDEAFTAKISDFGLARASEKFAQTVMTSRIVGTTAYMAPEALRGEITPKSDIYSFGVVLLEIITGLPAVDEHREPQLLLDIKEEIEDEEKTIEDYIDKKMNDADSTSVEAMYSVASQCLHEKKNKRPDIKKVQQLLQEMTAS
row,SMILES,IC50
1,"O=c1[nH]c(NC2CCC2)nc(NC[C@H](O)CO)c1-c1nc2ccccc2s1 [Example 49, (S)-5-(Benzo[d]thiazol-2-yl)-2-(cyclobutylamino)-6-(2,3-dihydroxypropylamino)pyrimidin-4(3H)-one.HCl]",5330 nM
2,"O=c1[nH]c(N2CCOCC2)nc(N[C@@H]2CCCNC2)c1-c1nc2cc(C3CC3)ccc2s1 [Example 346, 5-(5-cyclopropyl-1,3-benzothiazol-2-yl)-2-(morpholin-4-yl)-6-[[(3R)-piperidin-3-yl]amino]-3,4-dihydropyrimidin-4-one trifluoroacetic acid]",330 nM
3,"Cc1ccc(-c2c(N[C@@H]3CCCNC3)nc(N3CCOCC3)[nH]c2=O)nc1 [Example 110, (R)-5-(5-methylpyridin-2-yl)-2-morpholino-6-(piperidin-3-ylamino)pyrimidin-4(3H)-one]",872 nM
4,"Cc1cccc2nc(-c3c(N[C@@H]4CCCNC4)nc(N4CCOCC4)[nH]c3=O)sc12 [Example 340, (R)-5-(7-methylbenzo[d]thiazol-2-yl)-2-morpholino-6-(piperidin-3-ylamino)pyrimidin-4(3H)-one]",580 nM
5,"C[C@H]1CC[C@@H](Nc2nc(N3CCOCC3)[nH]c(=O)c2-c2nc3ccccc3s2)CN1 (racemic) [Example 123, 5-(benzo[d]thiazol-2-yl)-6((6-methylpiperidin-3-yl)amino)-2-morpholinopyrimidin-4(3H)-one.HCl]",847 nM
6,"O=c1[nH]c(N2CCOCC2)nc(N[C@@H]2CCCNC2)c1-c1nc2cc(Br)ccc2s1 [Example 345, 5-(5-bromo-1,3-benzothiazol-2-yl)-2-(morpholin-4-yl)-6-[[(3R)-piperidin-3-yl]amino]-3,4-dihydropyrimidin-4-one]",19 nM
7,"O=c1[nH]c(N2CCC2)nc(N[C@@H]2C[C@H](CO)[C@@H](O)[C@H]2O)c1-c1nc2ccccc2s1 [Example 31, 2-(Azetidin-1-yl)-5-(benzo[d]thiazol-2-yl)-6-(((1R,2S,3R,4R)-2,3-dihydroxy-4-(hydroxymethyl)cyclopentyl)amino)pyrimidin-4(3H)-one.HCl]",67 nM
8,"CC(C)Nc1nc(N[C@@H]2C[C@H](CO)[C@@H](O)[C@H]2O)c(-c2nc3ccccc3s2)c(=O)[nH]1 [Example 5, 5-(Benzo[d]thiazol-2-yl)-6-((1R,2S,3R,4R)-2,3-dihydroxy-4-(hydroxymethyl)cyclopentylamino)-2-(isopropylamino)pyrimidin-4(3H)-one.HCl]",151 nM
9,"O=c1[nH]c(NC2CCCCC2)nc(N[C@@H]2C[C@H](CO)[C@@H](O)[C@H]2O)c1-c1nc2ccccc2s1 [Example 6, 5-(Benzo[d]thiazol-2-yl)-2-(cyclohexylamino)-6-((1R,2S,3R,4R)-2,3-dihydroxy-4-(hydroxymethyl)cyclopentylamino)pyrimidin-4(3H)-one.HCl]",636 nM
10,"O=c1[nH]c(N2CCOCC2)nc(N[C@H]2CCNC2)c1-c1nc2ccccc2s1 [Example 86, (S)-5-(Benzo[d]thiazol-2-yl)-2-morpholino-6-(pyrrolidin-3-ylamino)pyrimidin-4(3H)-one.HCl]",620 nM
11,"O=c1[nH]c(C2CCN(c3ccccn3)CC2)nc(N[C@@H]2CCCNC2)c1-c1nc2ccccc2s1 [Example 242, (R)-5-(benzo[d]thiazol-2-yl)-6-(piperidin-3-ylamino)-2-(1-(pyridin-2-yl)piperidin-4-yl)pyrimidin-4(3H)-one]",180 nM
12,"O=c1[nH]c(N2CCOCC2)nc(N[C@@H]2CCCNC2)c1-c1nc(C2CC2)cs1 [Example 100, (R)-5-(4-cyclopropylthiazol-2-yl)-2-morpholino-6-(piperidin-3-ylamino)pyrimidin-4(3H)-one.HCl]",433 nM

# Same assay, conditions: 100 μM ATP; read-out: IC50
row,SMILES,IC50
1,O=c1[nH]c(N2CCC3(CCN(S(=O)(=O)c4ccccc4)C3)C2)nc(N[C@@H]2CCCNC2)c1-c1nc2ccccc2s1 (stereo partly shown) [Example 328],23 nM
2,"C[C@@H]1C[C@@H](Nc2nc(N3CCOCC3)[nH]c(=O)c2-c2nc3ccccc3s2)CN1 [Example 210, 5-(benzo[d]thiazol-2-yl)-6-(((3R,5R)-5-methylpyrrolidin-3-yl)amino)-2-morpholinopyrimidin-4(3H)-one]",150 nM
3,"O=c1[nH]c(C2CCN(C3CCOC3)CC2)nc(N[C@@H]2CCCNC2)c1-c1nc2ccccc2s1 (stereo partly drawn) [Example 233, 5-(1,3-benzothiazol-2-yl)-2-[1-(oxolan-3-yl)piperidin-4-yl]-6-[[(3R)-piperidin-3-yl]amino]pyrimidin-4-ol]",180 nM
4,"CCOC(=O)C1CN(c2nc(N[C@@H]3CCCNC3)c(-c3nc4ccccc4s3)c(=O)[nH]2)CCO1 (stereo partly drawn) [Example 321, ethyl 4-[5-(1,3-benzothiazol-2-yl)-6-oxo-4-[[(3R)-piperidin-3-yl]amino]-1,6-dihydropyrimidin-2-yl]morpholine-2-carboxylate; trifluoroacetic acid]",180 nM
5,"N#Cc1cccc(-c2c(N[C@@H]3CCCNC3)nc(N3CCOCC3)[nH]c2=O)n1 [Example 221, (R)-6-(2-morpholino-6-oxo-4-(piperidin-3-ylamino)-1,6-dihydropyrimidin-5-yl)picolinonitrile]",167 nM
6,"O=c1[nH]c(C2CCN(C3CCCC3)CC2)nc(N[C@@H]2CCCNC2)c1-c1nc2ccccc2s1 [Example 231, 5-(1,3-benzothiazol-2-yl)-2-(1-cyclo-pentylpiperidin-4-yl)-6-[[(3R)-piperidin-3-yl]amino]-3,4-dihydropyrimidin-4-one]",620 nM
7,O=c1[nH]c(N2CCC(F)(F)CC2)nc(N[C@@H]2CCCNC2)c1-c1nc2ccccc2s1 [Example 312],78 nM
8,"O=C1CCCN1c1cccc(-c2c(N[C@@H]3CCCNC3)nc(N3CCOCC3)[nH]c2=O)n1 [Example 216, (R)-2-morpholino-5-(6-(2-oxopyrrolidin-1-yl)pyridin-2-yl)-6-(piperidin-3-ylamino)pyrimidin-4(3H)-one]",258 nM
9,"CC1(c2ccc(Cl)cc2)CN(c2nc(N[C@@H]3CCCNC3)c(-c3nc4ccccc4s3)c(=O)[nH]2)CCO1 (stereo partly drawn) [Example 319, 5-(benzo[d]thiazol-2-yl)-2-(2-(4-chlorophenyl)-2-methylmorpholino)-6-((R)-piperidin-3-ylamino)pyrimidin-4(3H)-one hydrochloride]",2500 nM
10,"CN(c1nc(NC2CCCNC2)c(-c2nc3ccccc3s2)c(=O)[nH]1)[C@H]1CC[C@H](O)CC1 (stereo partly drawn) [Example 301, 5-(1,3-benzothiazol-2-yl)-2-[(4-hydroxycyclohexyl)(methyl)amino]-6-[[(3R)-piperidin-3-yl]amino]-3,4-dihydropyrimidin-4-one; trifluoroacetic acid]",390 nM
11,"CC(=O)NCCNc1nc(N2CCOCC2)[nH]c(=O)c1-c1nc2ccccc2s1 [Example 261, N-(2-[[5-(1,3-benzothiazol-2-yl)-2-(morpholin-4-yl)-6-oxo-1,6-dihydropyrimidin-4-yl]amino]ethyl)acetamide]",8200 nM
12,"O=c1[nH]c(N2CCOCC2)nc(NCCN2CCCC2)c1-c1ccc2ccccc2n1 [Example 279, 2-(morpholin-4-yl)-6-[[2-(pyrrolidin-1-yl)ethyl]amino]-5-(quinolin-2-yl)-3,4-dihydropyrimidin-4-one]",4900 nM
13,"O=c1[nH]c(N2CCOCC2)nc(NCC2CCCCN2)c1-c1nc2ccccc2s1 (stereo not shown) [Example 254, 5-(1,3-benzothiazol-2-yl)-2-(morpholin-4-yl)-6-[(piperidin-2-ylmethyl)amino]-3,4-dihydro-pyrimidin-4-one]",1600 nM
14,"COCC1CN(c2nc(N[C@@H]3CCCNC3)c(-c3nc4ccccc4s3)c(=O)[nH]2)CCO1 (stereo partly drawn) [Example 286, 5-(benzo[d]thiazol-2-yl)-2-(2-(methoxymethyl)morpholino)-6-((R)-piperidin-3-ylamino)pyrimidin-4(3H)-one]",81 nM

# Same assay, conditions: 100 μM ATP; read-out: IRAK4 IC50
row,SMILES,IC50
1,O=c1[nH]c(N2CCOCC2)nc(N[C@@H]2CCCNC2)c1-c1nc(-c2cc(F)ccc2F)cs1 [Example 205],90 nM
2,"O=c1[nH]c(N2CC(O)(C(F)(F)F)C2)nc(N[C@@H]2CCCNC2)c1-c1ccc2ccccc2n1 [Example 170, (R)-2-(3-hydroxy-3-(trifluoromethyl)azetidin-1-yl)-6-(piperidin-3-ylamino)-5-(quinolin-2-yl)pyrimidin-4(3H)-one]",18 nM
3,"CC(C)(O)C1CN(c2nc(N[C@@H]3CCCNC3)c(-c3ccc4ccccc4n3)c(=O)[nH]2)C1 [Example 172, (R)-2-(3-(2-hydroxypropan-2-yl)azetidin-1-yl)-6-(piperidin-3-ylamino)-5-(quinolin-2-yl)pyrimidin-4(3H)-one]",42 nM
4,O=c1[nH]c(N2CCOCC2)nc(N[C@@H]2CCCNC2)c1-c1nc(-c2cccc(C(F)(F)F)c2)cs1 [Example 200],141 nM
5,"CS(=O)(=O)C1CN(c2nc(N[C@@H]3CCCNC3)c(-c3ccc4ccccc4n3)c(=O)[nH]2)C1 [Example 169, (R)-2-(3-(methylsulfonyl)azetidin-1-yl)-6-(piperidin-3-ylamino)-5-(quinolin-2-yl)pyrimidin-4(3H)-one]",32 nM
6,"O=c1[nH]c(N2CCN(c3ccc(Cl)c(Cl)c3)CC2)nc(N[C@@H]2CCCNC2)c1-c1nc2ccccc2s1 [Example 153, (R)-5-(benzo[d]thiazol-2-yl)-2-(4-(3,4-dichlorophenyl)piperazin-1-yl)-6-(piperidin-3-ylamino)pyrimidin-4(3H)-one]",57 nM
7,"O=c1[nH]c(N2CCN(c3ccccc3C(F)(F)F)CC2)nc(N[C@@H]2CCCNC2)c1-c1nc2ccccc2s1 [Example 148, (R)-5-(benzo[d]thiazol-2-yl)-6-(piperidin-3-ylamino)-2-(4-(2-(trifluoromethyl)phenyl)piperazin-1-yl)pyrimidin-4(3H)-one]",45 nM
8,"O=c1[nH]c(N2CCC(c3ccccc3)CC2)nc(N[C@@H]2CCCNC2)c1-c1ccc2ccccc2n1 [Example 187, (R)-2-(4-phenylpiperidin-1-yl)-6-(piperidin-3-ylamino)-5-(quinolin-2-yl)pyrimidin-4(3H)-one]",16 nM
